Experimental data taken from the NIST ThermoML archive (doi:10.1016/j.jct.2005.03.006).
± gives the expanded uncertainty stated by the source.

Test: wn = mass fraction of the nth substance listed
Conditions: Liquid, Buoyancy - hydrostatic balance

CCc1ccccc1 [ethylbenzene] + CO
mass density [kg/m3]
Conditions | 100 kPa | 5000 kPa | 9900 kPa | 19700 kPa | 29700 kPa | 39300 kPa | 49100 kPa | 58900 kPa
292.05 K, w2 = 0.5 | 830.6 ± 10 | 834.1 ± 10 | 838.5 ± 10 | 845.6 ± 10 | 852.2 ± 10 | 858.6 ± 10 | 864.4 ± 10 | 871.2 ± 10
292.4 K, w2 = 0.75 | 813.3 ± 10 | 817.6 ± 10 | 822.1 ± 10 | 827.7 ± 10 | 836.5 ± 10 | 843 ± 10 | 848.8 ± 10 | 855.8 ± 10
292.65 K, w2 = 0.25 | 848 ± 10 | 851.5 ± 10 | 855.3 ± 10 | 862.7 ± 10 | 868.8 ± 10 | 874.8 ± 10 | 880.7 ± 10 | 886.8 ± 10
314.55 K, w2 = 0.5 | 810.8 ± 10 | 815.2 ± 10 | 819.6 ± 10 | 827.8 ± 10 | 835.2 ± 10 | 842 ± 10 | 848.6 ± 10 | 854.4 ± 10
314.65 K, w2 = 0.25 | 828.6 ± 10 | 833.1 ± 10 | 837.2 ± 10 | 845.1 ± 10 | 852 ± 10 | 859 ± 10 | 869.3 ± 10 | 871.5 ± 10
317.6 K, w2 = 0.75 | 795.3 ± 10 | 799.8 ± 10 | 804 ± 10 | 810.8 ± 10 | 820.2 ± 10 | 827.4 ± 10 | – | 840.4 ± 10
335.35 K, w2 = 0.75 | – | 778.8 ± 10 | 783 ± 10 | 790.7 ± 10 | 801.3 ± 10 | 809.4 ± 10 | 816.4 ± 10 | 823.5 ± 10
335.45 K, w2 = 0.25 | – | 815 ± 10 | 819.5 ± 10 | 828.3 ± 10 | 836.8 ± 10 | 844.1 ± 10 | 850.4 ± 10 | 856.4 ± 10
337.65 K, w2 = 0.5 | – | 794.3 ± 10 | 799.5 ± 10 | 808.3 ± 10 | 816.7 ± 10 | 824.4 ± 10 | 831.7 ± 10 | 837.8 ± 10
358.8 K, w2 = 0.75 | – | 754.4 ± 10 | 759.7 ± 10 | 768.5 ± 10 | 780.5 ± 10 | 789.6 ± 10 | 797.4 ± 10 | 805.5 ± 10
359.95 K, w2 = 0.25 | – | 790.3 ± 10 | 796.2 ± 10 | 807.6 ± 10 | 817.7 ± 10 | 825.5 ± 10 | 831.8 ± 10 | 838 ± 10
360.45 K, w2 = 0.5 | – | 771.3 ± 10 | 778.5 ± 10 | 788.1 ± 10 | 797.9 ± 10 | 806.5 ± 10 | 814.1 ± 10 | 820.5 ± 10
384.05 K, w2 = 0.75 | – | 725.4 ± 10 | 732.8 ± 10 | 743 ± 10 | 757.2 ± 10 | 767.3 ± 10 | 776.2 ± 10 | 785.4 ± 10
384.45 K, w2 = 0.5 | – | 744 ± 10 | 754.8 ± 10 | 766.4 ± 10 | 777.5 ± 10 | 786.6 ± 10 | 797.7 ± 10 | 801.6 ± 10
385.75 K, w2 = 0.25 | – | 763.2 ± 10 | 770.7 ± 10 | 785.7 ± 10 | 797.4 ± 10 | 806 ± 10 | 813 ± 10 | 819.7 ± 10
407.15 K, w2 = 0.25 | – | 739 ± 10 | 748.1 ± 10 | 765 ± 10 | 778.9 ± 10 | – | 796.4 ± 10 | 804.1 ± 10
408.15 K, w2 = 0.5 | – | 713.2 ± 10 | 729.5 ± 10 | 742.4 ± 10 | 754.8 ± 10 | 765.3 ± 10 | 774.1 ± 10 | 783 ± 10
410.05 K, w2 = 0.75 | – | 691 ± 10 | 701 ± 10 | 714.3 ± 10 | 731.6 ± 10 | 742.6 ± 10 | 753.1 ± 10 | 763 ± 10
433.5 K, w2 = 0.25 | – | 707.9 ± 10 | 719.4 ± 10 | 739 ± 10 | 755.8 ± 10 | 767 ± 10 | 775 ± 10 | 784.4 ± 10
434.15 K, w2 = 0.5 | – | 677.4 ± 10 | 695.9 ± 10 | 712.8 ± 10 | 728.6 ± 10 | 741.1 ± 10 | 751.2 ± 10 | 761.4 ± 10
434.35 K, w2 = 0.75 | – | 654.7 ± 10 | 668.2 ± 10 | 686 ± 10 | 706.5 ± 10 | 719 ± 10 | 730.7 ± 10 | 742.3 ± 10
459.55 K, w2 = 0.75 | – | 608.3 ± 10 | 628.7 ± 10 | 651.4 ± 10 | 677.4 ± 10 | 692.5 ± 10 | 706.4 ± 10 | 719.5 ± 10
460.25 K, w2 = 0.5 | – | 634.7 ± 10 | 653.7 ± 10 | 677.5 ± 10 | 697.7 ± 10 | 713.4 ± 10 | 726.4 ± 10 | 738.3 ± 10
460.45 K, w2 = 0.25 | – | 668.7 ± 10 | 683.4 ± 10 | 708.2 ± 10 | 727.1 ± 10 | 740.5 ± 10 | 751.2 ± 10 | 761.5 ± 10
489.65 K, w2 = 0.75 | – | 527.2 ± 10 | 571 ± 10 | 607 ± 10 | 640.3 ± 10 | 659.7 ± 10 | 677.3 ± 10 | 692.8 ± 10
491.15 K, w2 = 0.5 | – | 554 ± 10 | 594.2 ± 10 | 633.2 ± 10 | 656.5 ± 10 | – | 693 ± 10 | 708.6 ± 10
497.95 K, w2 = 0.25 | – | 623 ± 10 | 640.4 ± 10 | 671 ± 10 | 693.7 ± 10 | 710.4 ± 10 | 724.5 ± 10 | 736 ± 10

c1ccccc1 [benzene] + CO
mass density [kg/m3]
Conditions | 100 kPa | 5000 kPa | 9900 kPa | 19700 kPa | 29500 kPa | 39300 kPa | 49100 kPa | 58900 kPa
287.65 K, w2 = 0.5 | 840.5 ± 10 | 844.4 ± 10 | 847.9 ± 10 | 855.8 ± 10 | 863 ± 10 | 869.5 ± 10 | 875.2 ± 10 | 881 ± 10
291.15 K, w2 = 0.25 | 857.7 ± 10 | 862 ± 10 | 866.1 ± 10 | 873.8 ± 10 | 880.6 ± 10 | 887.3 ± 10 | 893.2 ± 10 | 899.1 ± 10
292.65 K, w2 = 0.75 | 815.2 ± 10 | 819.9 ± 10 | 824.2 ± 10 | 832.1 ± 10 | 839.2 ± 10 | 846.4 ± 10 | 852.5 ± 10 | 858.7 ± 10
297.35 K, w2 = 0.5 | 830.9 ± 10 | 835.6 ± 10 | 839.9 ± 10 | 847.7 ± 10 | 855 ± 10 | 862.1 ± 10 | 868 ± 10 | 874 ± 10
313.66 K, w2 = 0.25 | 835 ± 10 | 840.1 ± 10 | 844.8 ± 10 | 852.9 ± 10 | 860.8 ± 10 | 868.4 ± 10 | 875.1 ± 10 | 881 ± 10
314.15 K, w2 = 0.75 | 795.6 ± 10 | 800.3 ± 10 | 804.7 ± 10 | 813 ± 10 | 821.1 ± 10 | 828.8 ± 10 | 835.9 ± 10 | –
322.15 K, w2 = 0.5 | 806.5 ± 10 | 811.8 ± 10 | 817 ± 10 | 825.3 ± 10 | 833.4 ± 10 | 841.4 ± 10 | 848.2 ± 10 | 855.1 ± 10
337.37 K, w2 = 0.25 | – | 816.2 ± 10 | 822.1 ± 10 | 831 ± 10 | 840 ± 10 | 848.3 ± 10 | 856 ± 10 | 862.7 ± 10
338.35 K, w2 = 0.75 | – | 776.6 ± 10 | 781.6 ± 10 | 791 ± 10 | 800.2 ± 10 | 809 ± 10 | 817.1 ± 10 | 823.9 ± 10
341.35 K, w2 = 0.5 | – | 791.4 ± 10 | 797.7 ± 10 | 807.3 ± 10 | 816.2 ± 10 | 825.1 ± 10 | 832.9 ± 10 | 840 ± 10
356.15 K, w2 = 0.5 | – | 775.2 ± 10 | 781.8 ± 10 | 792 ± 10 | 802.8 ± 10 | 811.7 ± 10 | 819.8 ± 10 | 827.6 ± 10
361.64 K, w2 = 0.25 | – | 789.2 ± 10 | 796.5 ± 10 | 806.8 ± 10 | 817.1 ± 10 | 826.9 ± 10 | 835 ± 10 | 842.7 ± 10
361.65 K, w2 = 0.75 | – | 750.9 ± 10 | 757 ± 10 | 767.9 ± 10 | 778.4 ± 10 | 788.1 ± 10 | 797 ± 10 | 804.9 ± 10
376.65 K, w2 = 0.5 | – | 750.9 ± 10 | 758.2 ± 10 | 770.8 ± 10 | 784 ± 10 | 793.2 ± 10 | 801.8 ± 10 | –
383.15 K, w2 = 0.75 | – | 724.9 ± 10 | 732.5 ± 10 | 745 ± 10 | 757.4 ± 10 | 768.2 ± 10 | 777.8 ± 10 | 786.9 ± 10
383.16 K, w2 = 0.25 | – | 764.1 ± 10 | 772.6 ± 10 | 784.4 ± 10 | 796.3 ± 10 | 807.6 ± 10 | 815.9 ± 10 | 824.8 ± 10
402.15 K, w2 = 0.5 | – | 718.4 ± 10 | 726.6 ± 10 | 742.7 ± 10 | 757.7 ± 10 | 769 ± 10 | 778.9 ± 10 | 788.6 ± 10
406.65 K, w2 = 0.75 | – | 693.4 ± 10 | 703.3 ± 10 | 718.9 ± 10 | 733.3 ± 10 | 745 ± 10 | 755.9 ± 10 | 766.2 ± 10
407.66 K, w2 = 0.25 | – | 732 ± 10 | 741.5 ± 10 | 757.6 ± 10 | 771.3 ± 10 | 784.6 ± 10 | 793.3 ± 10 | 803.2 ± 10
428.15 K, w2 = 0.5 | – | 678.8 ± 10 | 689.5 ± 10 | 710.6 ± 10 | 728.7 ± 10 | 742.1 ± 10 | 753.2 ± 10 | 764.7 ± 10
429.26 K, w2 = 0.25 | – | 699.7 ± 10 | 710.6 ± 10 | 731.1 ± 10 | 748.2 ± 10 | 762.9 ± 10 | 773 ± 10 | 783.8 ± 10
431.35 K, w2 = 0.75 | – | 656.6 ± 10 | 667.9 ± 10 | 689.5 ± 10 | 706.7 ± 10 | 720 ± 10 | 732.5 ± 10 | 744.1 ± 10
453.2 K, w2 = 0.25 | – | 659.6 ± 10 | 673.3 ± 10 | 699.7 ± 10 | 720.8 ± 10 | 736.9 ± 10 | 748.8 ± 10 | 760.9 ± 10
453.65 K, w2 = 0.5 | – | 634 ± 10 | 649.1 ± 10 | 676.5 ± 10 | 697.6 ± 10 | 714 ± 10 | 727 ± 10 | 739.3 ± 10
458.5 K, w2 = 0.75 | – | 605.4 ± 10 | 624.7 ± 10 | 653.6 ± 10 | 674.8 ± 10 | 690.2 ± 10 | 705 ± 10 | 718.3 ± 10
475.26 K, w2 = 0.25 | – | 616.4 ± 10 | 639.6 ± 10 | 669.8 ± 10 | 694.3 ± 10 | 710.8 ± 10 | 725.7 ± 10 | 739.4 ± 10
477.35 K, w2 = 0.75 | – | 558.2 ± 10 | 590.9 ± 10 | 628.5 ± 10 | 652.3 ± 10 | 669.8 ± 10 | 686.2 ± 10 | 699.9 ± 10
496.65 K, w2 = 0.75 | – | 483.6 ± 10 | 549.1 ± 10 | 601.8 ± 10 | 628.5 ± 10 | 647.8 ± 10 | 665.6 ± 10 | 680.8 ± 10
497.15 K, w2 = 0.5 | – | 520.7 ± 10 | 570 ± 10 | 617.6 ± 10 | 643.1 ± 10 | 661.9 ± 10 | 680.8 ± 10 | 694.6 ± 10
497.17 K, w2 = 0.25 | – | 566.6 ± 10 | 598.9 ± 10 | 639 ± 10 | 664.5 ± 10 | 684.2 ± 10 | 701.6 ± 10 | 717 ± 10
